These results are taken from patent publication US7939110B2, “Composition and method for treating autoimmune disease and mucosal disorder” (National Yang-Ming University, priority 2005, dated 2011).

Experiment [1] concerns C57BL/6j mice. Kind of experiment: Ovalbumin-specific IgG in serum, oral tolerance model. The format is in vivo. The protocol:
Since it is well-known that animals can be immunized by ovalbumin (OVA) to establish the animal model for the autoimmune disease (The Journal of Pharmacology and Experimental Therapeutics 288:849-857, 1999), the present invention establishes an animal model which includes mice with OVA-induced autoimmune disease, and the mice are treated with DeCaPS to enhance oral tolerance. C57/BL6j mice ([…]) were orally treated with 0.5 mg/ml ovalbumin (OVA) in drinking water at day 4 and day 5, and DeCaPS was administrated to the C57/BL6j mice as an adjuvant at dosages of 10 mg/kg/day, 40 mg/kg/day and 160 mg/kg/day at days 3-7. 50 μg of OVA with Complete Freund's Adjuvant (CFA) was administrated to the mice as an antigen via i.p. injection at day 8 and with OVA on day 24. OVA-specific IgG and IgM in the blood was collected at day 22 and day 30. The mice were sacrificed at day 32 to collect an intestinal lavage solution of the intestinal mucosa and the lung mucosa to detect IgA in response to OVA. The detailed experimental procedures are illustrated in the following table II. […]

For experiment [2], the system named is C57BL/6j mice. Kind of experiment: Ovalbumin-specific IgM in serum, oral tolerance model. It is filed as in vivo. The protocol: Since it is well-known that animals can be immunized by ovalbumin (OVA) to establish the animal model for the autoimmune disease (The Journal of Pharmacology and Experimental Therapeutics 288:849-857, 1999), the present invention establishes an animal model which includes mice with OVA-induced autoimmune disease, and the mice are treated with DeCaPS to enhance oral tolerance. […] 50 μg of OVA with Complete Freund's Adjuvant (CFA) was administrated to the mice as an antigen via i.p. injection at day 8 and with OVA on day 24. OVA-specific IgG and IgM in the blood was collected at day 22 and day 30. The mice were sacrificed at day 32 to collect an intestinal lavage solution of the intestinal mucosa and the lung mucosa to detect IgA in response to OVA. The detailed experimental procedures are illustrated in the following table II.
With comparison to the IgM antibody level expressed in the control group at day 22, the IgM antibody level expressed in the normal group was decreased by about 49% (p<0.05), the IgM antibody level-expressed in the positive control group was suppressed by about 87% (p<0.05), the IgM antibody level-expressed in the DC-1 group was suppressed by about 46% (p<0.02), the IgM antibody level-expressed in the DC-2 group was suppressed by about 88% (p<0.001), and the IgM antibody level in the DC-3 group was suppressed by about 86% (p<0.001). […]

Where [3] appears, read: day 22, positive control group (oral OVA days 1-5, no DeCaPS).
Where [4] appears, read: day 30, positive control group (oral OVA days 1-5, no DeCaPS).

Consider ovalbumin [ovalbumin antigen], for which the “IgG antibody level suppressed vs control group” value in the experiment on C57BL/6j mice [1] (setting [3]) was “about 94%”; in the experiment with C57BL/6j mice [1] (setting [4]), “about 75%”. Also, the “IgM antibody level suppressed vs control group” value in the experiment with C57BL/6j mice [2] (setting [3]) was “about 87%”; with C57BL/6j mice [2] (setting [4]), “about 72%”.
